# According to patent US12448373B2, “Azetidinyl-acetamides as CXCR7 inhibitors” (CHEMOCENTRYX, INC., priority 2021, dated 2025):
# Molecular target: T1, CXCR7 (Homo sapiens, UniProt P25106)
# T1 construct: expressed in transfected cells; host or cells: CHO cells (CHO-CXCR7), transgenes maintained with Hygromycin B and G418
# Assay: CXCR7 β-arrestin recruitment assay in CHO-CXCR7 cells (ProLink/EA β-galactosidase complementation), induced by human SDF-1a
# Type: cell-based
# Details: assay buffer, SDF-1a at EC50 concentration
# Procedure, shortened: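 CHO cells co-expressing ProLink-tagged CXCR7 and β-arrestin-EA were pre-plated overnight, then given compound and human SDF-1α at its same-day EC50. After 1.5 h at 37 °C, complemented β-galactosidase was read from 0.4 mM 3-carboxyumbelliferyl β-D-galactopyranoside (30 min, 37 °C; ex 360/em 465 nm). IC50 by 3-parameter fit.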
# T1 sequence (P25106 whole entry): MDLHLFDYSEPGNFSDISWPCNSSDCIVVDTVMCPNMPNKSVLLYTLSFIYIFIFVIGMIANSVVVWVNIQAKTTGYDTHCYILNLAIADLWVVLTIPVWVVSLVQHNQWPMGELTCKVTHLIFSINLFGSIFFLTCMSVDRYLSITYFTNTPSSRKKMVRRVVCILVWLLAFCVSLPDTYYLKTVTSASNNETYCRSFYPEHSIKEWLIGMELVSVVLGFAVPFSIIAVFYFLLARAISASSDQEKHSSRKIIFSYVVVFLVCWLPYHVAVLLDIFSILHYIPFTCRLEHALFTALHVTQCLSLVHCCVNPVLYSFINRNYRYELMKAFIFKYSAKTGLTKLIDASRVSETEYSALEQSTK
row,Compound,IC50
1,CC(C)(NC(=O)CC1(NC(=O)c2cc(-c3ccc(F)cc3F)on2)CN(C2CCCCC2)C1)c1ccccc1C(F)(F)F [Example 1.308],< 5 nM
2,CC(C)(NC(=O)CC1(NC(=O)c2cc(-c3ccc(F)cc3F)on2)CN([C@H]2CC[C@](C)(O)CC2)C1)c1ncccn1 [Example 1.233],< 5 nM
3,CC(C)(NC(=O)CC1(NC(=O)c2cc(-c3ccc(F)cc3F)on2)CN(C2CCC3(CC2)COC3)C1)c1ccccn1 [Example 1.294],< 5 nM
4,CC(C)(NC(=O)CC1(NC(=O)c2cc(-c3ccc(F)cc3F)on2)CN([C@H]2CC[C@](C)(O)CC2)C1)c1ccc(F)cc1 [Example 1.260],5 to 100 nM
5,CC(C)(NC(=O)CC1(NC(=O)c2cc(-c3ccc(F)cc3F)on2)CN([C@H]2CC[C@@](C)(O)CC2)C1)c1cccc(C(F)(F)F)n1 [Example 1.155],< 5 nM
6,CC(C)(NC(=O)CC1(NC(=O)c2cc(-c3ccc(F)cc3F)on2)CN(C2CCCCC2)C1)c1ccc(F)cc1 [Example 1.298],5 to 100 nM
7,CC(C)(NC(=O)CC1(NC(=O)c2cc(-c3ccc(F)cc3F)on2)CN(CC2CC2)C1)c1ccccn1 [Example 1.327],5 to 100 nM
8,CC(C)(NC(=O)CC1(NC(=O)c2cc(-c3ccc(F)cc3F)on2)CN([C@H]2CC[C@](C)(O)CC2)C1)c1ccc(Cl)cc1 [Example 1.250],100 to 1000 nM
9,Cc1cc(C)nc(C(C)(C)NC(=O)CC2(NC(=O)c3nnc(-c4ccc(F)cc4F)s3)CN(C3CCCCC3)C2)n1 [Example 1.070],< 5 nM
10,CC(C)(NC(=O)CC1(NC(=O)c2cc(-c3ccc(F)cc3F)on2)CN(C2CCC3(CC2)COC3)C1)c1cc(Cl)cc(Cl)c1 [Example 1.092],5 to 100 nM
11,COc1cccc(C(C)(C)NC(=O)CC2(NC(=O)c3cc(-c4ccc(F)cc4F)on3)CN(C3CCCCC3)C2)n1 [Example 1.272],5 to 100 nM
12,CC(C)(NC(=O)CC1(NC(=O)c2cc(-c3ccc(F)cc3F)on2)CN(C2CCC3(CC2)CC3)C1)c1ccccn1 [Example 1.269],5 to 100 nM
13,CC(C)(NC(=O)CC1(NC(=O)c2cc(-c3ccc(F)cc3F)on2)CN([C@H]2CC[C@@](C)(O)CC2)C1)c1cccc(Cl)c1 [Example 1.220],< 5 nM
14,CC(C)(NC(=O)CC1(NC(=O)c2cc(-c3ccc(F)cc3F)on2)CN(C2CCCCC2)C1)c1ccccn1 [Example 1.326],< 5 nM
15,COc1cccc(C(C)(C)NC(=O)CC2(NC(=O)c3cc(-c4ccc(F)cc4F)on3)CN([C@H]3CC[C@](C)(O)CC3)C2)n1 [Example 1.204],< 5 nM
16,CC(C)(NC(=O)CC1(NC(=O)c2cc(-c3ccc(F)cc3F)on2)CN(C2CCCCC2)C1)c1ccccc1F [Example 1.302],< 5 nM
17,CCC(C)CN1CC(CC(=O)NC(C)(C)c2ccccn2)(NC(=O)c2cc(-c3ccc(F)cc3F)on2)C1 (stereo not shown) [Example 1.010],< 5 nM

row,Compound,IC50
1,COc1cc(C)nc(C(C)(C)NC(=O)CC2(NC(=O)c3cc(-c4ccc(F)cc4F)on3)CN([C@H]3CC[C@@](C)(O)CC3)C2)n1 [Example 1.167],< 5 nM
2,Cc1cc(C(C)(C)NC(=O)CC2(NC(=O)c3cc(-c4ccc(F)cc4F)on3)CN([C@H]3CC[C@](C)(O)CC3)C2)ccn1 [Example 1.211],< 5 nM
3,CC(C)(NC(=O)CC1(NC(=O)c2cc(-c3ccc(F)cc3F)on2)CN([C@H]2CC[C@](C)(O)CC2)C1)c1ccccc1Cl [Example 1.219],< 5 nM
4,Cc1cc(C)nc(C(C)(C)NC(=O)CC2(NC(=O)c3cc(-c4ccc(F)cc4F)on3)CN(CC3(C)CCC3)C2)n1 [Example 1.001],< 5 nM
5,CC(C)(NC(=O)CC1(NC(=O)c2cc(-c3ccc(F)cc3F)on2)CN(C2CC3CC3C2)C1)c1ccccn1 (stereo not shown) [Example 1.014],5 to 100 nM
6,CC(C)(NC(=O)CC1(NC(=O)c2cc(-c3ccc(F)cc3F)on2)CN(C2CCCCC2)C1)c1cccc(F)c1 [Example 1.301],< 5 nM
7,Cc1ccnc(C(C)(C)NC(=O)CC2(NC(=O)c3cc(-c4ccc(F)cc4F)on3)CN([C@H]3CC[C@](C)(O)CC3)C2)c1 [Example 1.164],< 5 nM
8,CC(C)(NC(=O)CC1(NC(=O)c2cc(-c3ccc(F)cc3F)on2)CN([C@H]2CC[C@](C)(O)CC2)C1)c1cccc(C(F)(F)F)c1 [Example 1.199],5 to 100 nM
9,CC(C)(NC(=O)CC1(NC(=O)c2cc(-c3ccc(F)cc3F)on2)CN([C@H]2CC[C@@](C)(O)CC2)C1)c1ccccc1 [Example 1.267],< 5 nM
10,COc1cncc(C(C)(C)NC(=O)CC2(NC(=O)c3cc(-c4ccc(F)cc4F)on3)CN([C@H]3CC[C@](C)(O)CC3)C2)c1 [Example 1.142],5 to 100 nM
11,Cc1cc(C)nc(C(C)(C)NC(=O)CC2(NC(=O)c3nnc(-c4ccc(F)cc4F)s3)CN([C@H]3CC[C@](C)(O)CC3)C2)c1 [Example 1.031],< 5 nM
12,Cc1ccccc1C(C)(C)NC(=O)CC1(NC(=O)c2cc(-c3ccc(F)cc3F)on2)CN([C@H]2CC[C@](C)(O)CC2)C1 [Example 1.215],< 5 nM
13,CC(C)(NC(=O)CC1(NC(=O)c2cc(-c3ccc(F)cc3F)on2)CN([C@H]2CC[C@@](C)(O)CC2)C1)c1cc(F)cc(F)c1 [Example 1.152],< 5 nM
14,CC1(O)CCC(N2CC(CC(=O)NC3(c4ncccn4)CC3)(NC(=O)c3cc(-c4ccc(F)cc4F)on3)C2)CC1 (stereo not shown) [Example 1.277],< 5 nM
15,COc1cc(Cl)cc(C(C)(C)NC(=O)CC2(NC(=O)c3cc(-c4ccc(F)cc4F)on3)CN([C@H]3CC[C@@](C)(O)CC3)C2)c1 [Example 1.160],< 5 nM
16,Cc1cc(C)nc(C(C)(C)NC(=O)CC2(NC(=O)c3cc(-c4ccc(F)cc4F)on3)CN(C3CCOCC3(C)C)C2)n1 (stereo not shown) [Example 1.351],100 to 1000 nM
17,CC(C)(NC(=O)CC1(NC(=O)c2nnc(-c3ccc(F)cc3F)s2)CN(C2CCCCC2)C1)c1cccc(Cl)c1 [Example 1.073],< 5 nM

# Second part, the compound after the results:
row,IC50,Compound
1,< 5 nM,Cc1cc(C#N)cc(C(C)(C)NC(=O)CC2(NC(=O)c3nnc(-c4ccc(F)cc4F)s3)CN([C@H]3CC[C@](C)(O)CC3)C2)n1 [Example 1.337]
2,100 to 1000 nM,O=C(CC1(NC(=O)c2cc(-c3ccc(F)cc3F)on2)CN(Cc2ccccc2)C1)NC1(c2ncccn2)CC1 [Example 1.329]
3,1000 to 20000 nM,C[C@]1(O)CC[C@H](N2CC(CC(=O)NCc3ccccn3)(NC(=O)c3cc(-c4ccc(F)cc4F)on3)C2)CC1 [Example 1.099]
4,< 5 nM,COc1cc(C(C)(C)NC(=O)CC2(NC(=O)c3cc(-c4ccc(F)cc4F)on3)CN([C@H]3CC[C@@](C)(O)CC3)C2)ccn1 [Example 1.188]
5,100 to 1000 nM,CC(C)(NC(=O)CC1(NC(=O)c2cc(-c3ccc(F)cc3F)on2)CN([C@H]2CC[C@](C)(O)CC2)C1)c1c(F)cccc1F [Example 1.258]
6,< 5 nM,Cc1cc(C)nc(C(C)(C)NC(=O)CC2(NC(=O)c3cc(-c4ccc(F)cc4F)on3)CN([C@H]3CC[C@](C)(O)CC3)C2)c1 [Example 1.106]
7,5 to 100 nM,CC(C)(NC(=O)CC1(NC(=O)c2cc(-c3ccc(F)cc3F)on2)CN([C@H]2CC[C@](C)(O)CC2)C1)c1ccc(F)c(F)c1 [Example 1.257]
8,5 to 100 nM,CC(C)(NC(=O)CC1(NC(=O)c2cc(-c3ccc(F)cc3F)on2)CN([C@H]2CC[C@](C)(O)CC2)C1)c1cccc(OC(F)(F)F)c1 [Example 1.198]
9,< 5 nM,CC(C)(NC(=O)CC1(NC(=O)c2cc(-c3ccc(F)cc3F)on2)CN([C@H]2CC[C@](C)(O)CC2)C1)c1cc(F)ccc1F [Example 1.236]
10,5 to 100 nM,CC(C)(NC(=O)CC1(NC(=O)c2cc(-c3ccc(F)cc3F)on2)CN([C@H]2CCC[C@@H](O)C2)C1)c1ccccn1 [Example 1.286]
11,1000 to 20000 nM,CC(C)(NC(=O)CC1(NC(=O)c2csc(-c3ccc(F)cc3F)n2)CN([C@H]2CC[C@](C)(O)CC2)C1)c1cccc(Cl)c1 [Example 1.051]
12,5 to 100 nM,Cc1cc(C(C)(C)NC(=O)CC2(NC(=O)c3cc(-c4ccc(F)cc4F)on3)CN([C@H]3CC[C@](C)(O)CC3)C2)cc(C)n1 [Example 1.112]
13,1000 to 20000 nM,CC(C)(NC(=O)CC1(NC(=O)c2cc(-c3ccc(F)cc3F)n[nH]2)CN([C@H]2CC[C@](C)(O)CC2)C1)c1cccc(Cl)c1 [Example 1.054]
14,1000 to 20000 nM,Cn1nc(-c2ccc(F)cc2F)cc1C(=O)NC1(CC(=O)NC(C)(C)c2cccc(Cl)c2)CN([C@H]2CC[C@](C)(O)CC2)C1 [Example 1.059]
15,5 to 100 nM,CC(C)(NC(=O)CC1(NC(=O)c2cc(-c3ccc(F)cc3F)on2)CN([C@H]2CC[C@](C)(O)CC2)C1)c1c[nH]c2ncccc12 [Example 1.097]
16,< 5 nM,COc1cc(F)cc(C(C)(C)NC(=O)CC2(NC(=O)c3cc(-c4ccc(F)cc4F)on3)CN([C@H]3CC[C@@](C)(O)CC3)C2)c1 [Example 1.169]
17,5 to 100 nM,CC(C)(NC(=O)CC1(NC(=O)c2cc(-c3ccc(F)cc3F)on2)CN([C@H]2CC[C@@](C)(O)CC2)C1)c1cccc(C2CC2)c1 [Example 1.143]
18,< 5 nM,CC(C)(NC(=O)CC1(NC(=O)c2cc(-c3ccc(F)cc3F)on2)CN([C@@H]2CCCCC2(C)C)C1)c1ccccn1 [Example 1.274]
19,< 5 nM,Cc1ccnc(C(C)(C)NC(=O)CC2(NC(=O)c3cc(-c4ccc(F)cc4F)on3)CN([C@H]3CC[C@](C)(O)CC3)C2)n1 [Example 1.202]
20,5 to 100 nM,C[C@]1(O)CC[C@H](N2CC(CC(=O)NC3(c4ccccn4)CC3)(NC(=O)c3cc(-c4ccc(F)cc4F)on3)C2)CC1 [Example 1.191]
21,5 to 100 nM,Cc1cc(C)nc(C(C)(C)NC(=O)CC2(NC(=O)c3nnc(-c4ccc(F)cc4F)s3)CN(CC(C)C)C2)n1 [Example 1.039]
22,< 5 nM,CC(C)(NC(=O)CC1(NC(=O)c2cc(-c3ccc(F)cc3F)on2)CN([C@H]2CC[C@](C)(O)CC2)C1)c1cc(F)cc(Cl)c1 [Example 1.124]
23,5 to 100 nM,CC(C)(NC(=O)CC1(NC(=O)c2nnc(-c3ccc(F)cc3F)s2)CN([C@H]2CC[C@](C)(O)CC2)C1)c1cccc(C#N)c1 [Example 1.025]
24,1000 to 20000 nM,C[C@]1(O)CC[C@@H](N2CC(CC(=O)NCc3ccccc3)(NC(=O)c3cc(-c4ccc(F)cc4F)on3)C2)CC1 [Example 1.127]
